A short description of the data set: Cmax in Sprague-Dawley rat at 5 mg/kg, iv measured for 96 hrs by LC-MS analysis. It is filed as ADME, organism-based. Further details: time 96 hrs, dose 5 mg/kg, route iv. To be noted: in vivo.

Molecules are shown by their SMILES.

For one compound, Cmax results are on record in ChEMBL document CHEMBL5096241, “Discovery of 3-Aminopyrazole Derivatives as New Potent and Orally Bioavailable AXL Inhibitors” (J Med Chem, 2022).

By Cmax is commonly meant the highest concentration seen after dosing. `COc1cc2c(Oc3ccc(Nc4nn(C)cc4C(=O)NC4CCCCC4)cc3F)ccnc2cc1OCCCN1CCOCC1` came in with a Cmax of 12300 ng/mL.
